Experimental data taken from BigSolDB 2.1.

O=S(=O)(c1ccccc1)c1ccc(Cl)cc1
solubility (mole fraction)
Conditions	278.15 K	283.15 K	288.15 K	293.15 K	298.15 K	303.15 K	308.15 K	313.15 K	318.15 K	323.15 K
in ethanol	0.00091	0.00105	0.00121	0.00142	0.00166	0.00189	0.00221	0.00261	0.00301	0.00358
in isopropanol	0.00198	0.00236	0.00283	0.00338	0.00395	0.00468	0.00547	0.00629	0.00722	0.00838
in methanol	0.000276	0.000332	0.000401	0.00049	0.000572	0.000668	0.000781	0.0009	0.00105	0.00125
in n-propanol	0.00351	0.00411	0.00479	0.00555	0.00645	0.00754	0.00885	0.0102	0.0116	0.0137
in water	2.88e-06	3.77e-06	4.7e-06	5.95e-06	7.38e-06	9.03e-06	1.1e-05	1.34e-05	1.61e-05	1.94e-05
